In PubChem BioAssay (NCI):
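At the GI50, growth is halved. TGI denotes the concentration required for complete inhibition of growth.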

Legend:
Test in all cases: NCI anticancer screen, dose series, 384-well format; in the data active = GI50 below about 0.43 µM; inactive = the rest
NCI-H226 lung = tested on: NCI-H226 lung
M14 melanoma = tested on: M14 melanoma
HL-60(TB) leukemia = tested on: HL-60(TB) leukemia
SNB-75 CNS = tested on: SNB-75 CNS
SR leukemia = tested on: SR leukemia
HCC-2998 colon = tested on: HCC-2998 colon
CCRF-CEM leukemia = tested on: CCRF-CEM leukemia
HT29 colon = tested on: HT29 colon
ACHN renal = tested on: ACHN renal
OVCAR-4 ovarian = tested on: OVCAR-4 ovarian
SK-MEL-5 melanoma = tested on: SK-MEL-5 melanoma
K-562 leukemia = tested on: K-562 leukemia
DU-145 prostate = tested on: DU-145 prostate
RPMI-8226 leukemia = tested on: RPMI-8226 leukemia
SK-MEL-28 melanoma = tested on: SK-MEL-28 melanoma
A498 renal = tested on: A498 renal
CAKI-1 renal = tested on: CAKI-1 renal
LOX IMVI melanoma = tested on: LOX IMVI melanoma
KM12 colon = tested on: KM12 colon
SNB-19 CNS = tested on: SNB-19 CNS
SN12C renal = tested on: SN12C renal
MDA-MB-468 breast = tested on: MDA-MB-468 breast
EKVX NSCLC = tested on: EKVX NSCLC
IGROV1 ovarian = tested on: IGROV1 ovarian
HCT-15 colon = tested on: HCT-15 colon
MDA-MB-231 breast = tested on: MDA-MB-231 breast
786-0 renal = tested on: 786-0 renal
SF-539 CNS = tested on: SF-539 CNS
NCI-H322M lung = tested on: NCI-H322M lung
MCF7 breast = tested on: MCF7 breast
SF-268 CNS = tested on: SF-268 CNS
NCI-H522 lung = tested on: NCI-H522 lung
UO-31 renal = tested on: UO-31 renal
PC-3 prostate = tested on: PC-3 prostate
TK-10 renal = tested on: TK-10 renal
MOLT-4 leukemia = tested on: MOLT-4 leukemia
HOP-92 NSCLC = tested on: HOP-92 NSCLC
NCI-H23 lung = tested on: NCI-H23 lung
UACC-257 melanoma = tested on: UACC-257 melanoma
COLO 205 colon = tested on: COLO 205 colon
MDA-MB-435 melanoma = tested on: MDA-MB-435 melanoma
HS 578T breast = tested on: HS 578T breast
T-47D breast = tested on: T-47D breast
NCI-H460 NSCLC = tested on: NCI-H460 NSCLC
A549 NSCLC = tested on: A549 NSCLC
NCI/ADR-RES ovarian = tested on: NCI/ADR-RES ovarian

COc1cc(OC)c(F)c(COc2cnc(Nc3cnn(CCO)c3)nc2)c1F
658 nM: TGI (NCI-H522 lung)
2290 nM: TGI (NCI-H226 lung)
6330 nM: TGI (SN12C renal)
3210 nM: TGI (COLO 205 colon)
1100 nM: TGI (K-562 leukemia)
397 nM: TGI (CCRF-CEM leukemia)
1070 nM: TGI (HT29 colon)
467 nM: TGI (SNB-75 CNS)
411 nM: TGI (MDA-MB-435 melanoma)
1580 nM: TGI (SK-MEL-5 melanoma)
3680 nM: TGI (SF-268 CNS)
1240 nM: TGI (RPMI-8226 leukemia)
active: GI50 (NCI-H226 lung) 260 nM | GI50 (M14 melanoma) 239 nM | GI50 (HL-60(TB) leukemia) 140 nM | GI50 (SNB-75 CNS) 140 nM | GI50 (SR leukemia) 41.1 nM | GI50 (CCRF-CEM leukemia) 204 nM | GI50 (HT29 colon) 343 nM | GI50 (SK-MEL-5 melanoma) 383 nM | GI50 (K-562 leukemia) 264 nM | GI50 (RPMI-8226 leukemia) 307 nM | GI50 (A498 renal) 355 nM | GI50 (CAKI-1 renal) 353 nM | GI50 (KM12 colon) 327 nM | GI50 (MDA-MB-468 breast) 234 nM | GI50 (HCT-15 colon) 386 nM | GI50 ([…]-0 renal) 425 nM | GI50 (SF-539 CNS) 340 nM | GI50 (MCF7 breast) 408 nM | GI50 (NCI-H522 lung) 257 nM | GI50 (MOLT-4 leukemia) 187 nM | GI50 (MDA-MB-435 melanoma) 177 nM | GI50 (HS 578T breast) 226 nM | GI50 (NCI-H460 NSCLC) 353 nM
3410 nM: TGI (KM12 colon)
2240 nM: TGI (NCI-H23 lung)
1000 nM: TGI (NCI-H460 NSCLC)
1500 nM: TGI (SF-539 CNS)
4740 nM: TGI (HOP-92 NSCLC)
> 100000 nM: TGI (HCC-2998 colon) | TGI (ACHN renal) | TGI (OVCAR-4 ovarian) | TGI (DU-145 prostate) | TGI (SK-MEL-28 melanoma) | TGI (A498 renal) | TGI (SNB-19 CNS) | TGI (EKVX NSCLC) | TGI (IGROV1 ovarian) | TGI (HCT-15 colon) | TGI (MDA-MB-231 breast) | TGI (786-0 renal) | TGI (NCI-H322M lung) | TGI (MCF7 breast) | TGI (UO-31 renal) | TGI (PC-3 prostate) | TGI (TK-10 renal) | TGI (UACC-257 melanoma) | TGI (T-47D breast) | TGI (A549 NSCLC)
1830 nM: TGI (NCI/ADR-RES ovarian)
709 nM: TGI (M14 melanoma)
672 nM: TGI (HS 578T breast)
3820 nM: TGI (LOX IMVI melanoma)
1650 nM: TGI (CAKI-1 renal)
272 nM: TGI (HL-60(TB) leukemia)
514 nM: TGI (MDA-MB-468 breast)
inactive: GI50 (HCC-2998 colon) 751 nM | GI50 (ACHN renal) 1020 nM | GI50 (OVCAR-4 ovarian) 8520 nM | GI50 (DU-145 prostate) 1600 nM | GI50 (SK-MEL-28 melanoma) 741 nM | GI50 (LOX IMVI melanoma) 485 nM | GI50 (SNB-19 CNS) 681 nM | GI50 (SN12C renal) 1180 nM | GI50 (EKVX NSCLC) 828 nM | GI50 (IGROV1 ovarian) 536 nM | GI50 (MDA-MB-231 breast) 657 nM | GI50 (NCI-H322M lung) 1790 nM | GI50 (SF-268 CNS) 491 nM | GI50 (UO-31 renal) 844 nM | GI50 (PC-3 prostate) 1250 nM | GI50 (TK-10 renal) 714 nM | GI50 (HOP-92 NSCLC) 747 nM | GI50 (NCI-H23 lung) 494 nM | GI50 (UACC-257 melanoma) 2120 nM | GI50 (COLO 205 colon) 454 nM | GI50 (T-47D breast) 810 nM | GI50 (A549 NSCLC) 1270 nM | GI50 (NCI/ADR-RES ovarian) 442 nM
356 nM: TGI (MOLT-4 leukemia)
165 nM: TGI (SR leukemia)
